This is an account of results in patent publication US20220073475A1, “5-MEMBERED HETEROARYL COMPOUNDS CONTAINING A HYDROXAMATE MOIETY AND THEIR USE” (UNIVERSITE DE LILLE, priority 2019, published 2022).

The subject of the data set is OPM2 cells. Nature of the data set: CFZ potency increase, ratio of CC50 of CFZ alone / with compound. The data set is classed as cell-based, human. An excerpt: Human multiple myeloma cells OPM2 (ACC 50, DSMZ) are maintained at 0.3-0.7 10^6 cells/mL in RPMI1640 medium supplemented with GlutaMAX™, 10% fetal bovine serum and 1% penicillin-streptomycin.
We developed a cell-based, high content assay allowing the rapid detection and quantification of apoptotic cells. Caspase-3/7 activity was detected in real-time using the NucView™ 488 Caspase-3 substrate (Biotium), where the caspase-3/7 substrate peptide sequence DEVD is attached to a nucleic acid dye. The NucView™ 488 reagent crosses the plasma membrane to enter the cytoplasm, where the dye is unable to bind to DNA and remains non-fluorescent. Once the substrate has been cleaved by activated caspase-3/7 in apoptotic cells, the high-affinity DNA dye is released and migrates to the cell nucleus to stain the nucleus with a bright green fluorescence. All cell nuclei were also labeled with Hoechst 33342 (Ozyme).
For OPM2, briefly, nanoliters of compound and cytotoxic agent in DMSO stock solutions were first transferred and combined in 384-microtiter well plate using an Echo555 liquid handler (Labcyte). The exact volume of each solution to be transferred was calculated to achieve subsequently the target concentration in the 70 μL volume incubate. Final DMSO content was maintained at 0.2%. Then, 70 μL of cells treated with 1 μM NucView™ 488 and 20 ng/mL Hoechst 33342 were distributed to the plates to obtain a final density of 12,000 cells per well. The microplates were incubated at 37° C. and 5% CO2 in an automated LiCONiC STR240 UB cell incubator, and images were acquired at various times at 405 nm and 488 nm with the high-resolution automated confocal microscope INCell 6000 (GE). Four fields per well were read with the 20× objective in a confocal mode. The BioCel workstation was managed by VWorks automation control software
For all cells, Columbus software (Perkin) was used for image quantification and analysis. First, Hoechst 33342 staining was used for an automated detection of nuclei, in which the mean fluorescence intensity for NucView™ 488 was quantified. Inspection of control cells at initial time was used to set a threshold level of NucView™ 488 fluorescence to separate non apoptotic cells from apoptotic cells. Finally, for each well, the result was expressed as percentage of apoptotic cells in the total cell population. CC50 values were calculated from concentration-response curves by a nonlinear regression analysis at four parameters using Excel Fit or GraphPad Prim softwares.
Activity=(% of apoptotic cells with cytotoxic agent in combination with compound of the invention)/(% of apoptotic cells with cytotoxic agent alone). • Ratio of CC50: The CC50 of the cytotoxic agent was calculated in absence and in presence of a compound of the invention.
Activity=(CC50 of agent alone)/(CC50 of agent with compound). • Ratio of AUC. Activity=(Area of the dose-concentration curve of cytotoxic agent combined with one concentration of compound)/(Area of the dose-concentration curve of cytotoxic agent alone). (Lehar J. et al, 2008 (molecular systems biology 4:215)).

Setting [1] is: OPM2, compound at 7.5 μM (Table 5).

As for `CC(NC(=O)c1ccc(F)c(F)c1)c1cn([C@@H](CC(=O)NO)Cc2ccc3ccccc3c2)nn1` (stereo in doubt) [Compound 78, 3,4-difluoro-N-[1-[1-[3-(hydroxyamino)-1-(2-naphthylmethyl)-3-oxo-propyl]triazol-4-yl]ethyl]benzamide], under setting [1], the “Activity: ratio (CC50 of CFZ alone)/(CC50 of CFZ in combination with compound of the invention)” value (from here on “Activity: ratio”) amounted to 2.0.

With `O=C(C[C@@H](Cc1ccc2ccccc2c1)n1cc(CNS(=O)(=O)c2ccc(F)cc2)nn1)NO` [Compound 6, (R)-3-{4-[(4-Fluoro-benzenesulfonylamino)-methyl]-[1,2,3]triazol-1-yl}-N-hydroxy-4-naphthalen-2-yl-butyramide], the “Activity: ratio” value under setting [1] turned out to be 1.3. In the case of `O=C(C[C@@H](Cc1ccc2ccccc2c1)n1nncc1CNC(=O)C1CCCCC1)NO` [Compound 13, (R)-Cyclohexanecarboxylic acid [3-(1-hydroxycarbamoylmethyl-2-naphthalen-2-yl-ethyl)-3H-[1,2,3]triazol-4-ylmethyl]-amide], the “Activity: ratio” value under setting [1] was found to be 1.2. On the same count and under the same terms, next, `O=C(C[C@@H](Cc1ccc2ccccc2c1)n1cc(COCc2ccccc2)nn1)NO` [Compound 23, (R)-3-(4-benzyloxymethyl-[1,2,3]triazol-1-yl)-N-hydroxy-4-naphthalen-2-yl-butyramide]: 1.1. `O=C(C[C@@H](Cc1ccc2ccccc2c1)n1nncc1CNC(=O)CCc1ccccc1)NO` [Compound 25, (R)—N-hydroxy-4-naphthalen-2-yl-3-{5-[(3-phenyl-propionylamino)-methyl]-[1,2,3]-triazol-1-yl}-butyramide]: under setting [1], the “Activity: ratio” value was found to be 1.4.

In the case of `COc1ccc2cc([C@H](C)C(=O)NCc3cnnn3[C@@H](CC(=O)NO)Cc3ccc4ccccc4c3)ccc2c1` [Compound 26, (R,S)—N-hydroxy-3-(5-{[2-(6-methoxy-naphthalen-2-yl)-propionylamino]-methyl}-[1,2,3]triazol-1-yl)-4-naphthalen-2-yl-butyramide], the “Activity: ratio” value under setting [1] stood at 1.8. Still for that read-out and setting: next, `O=C(CC(Cc1ccc2ccccc2c1)c1nc(CNC(=O)c2ccccc2)no1)NO` (stereo not drawn) [Compound 28, N-[5-(1-hydroxycarbamoylmethyl-2-naphthalen-2-yl-ethyl)-[1,2,4]oxadiazol-3-ylmethyl]-benzamide]: 2.0; `O=C(NCc1noc(C(Cc2ccc3ccccc3c2)C(=O)NO)n1)c1ccc(F)cc1` (stereo not drawn) [Compound 44, 4-Fluoro-N-[5-(1-hydroxycarbamoyl-2-naphthalen-2-yl-ethyl)-[1,2,4]oxadiazol-3-ylmethyl]-benzamide]: 1.2. Same read-out and setting: next, `O=C(C[C@@H](Cc1ccc2ccccc2c1)n1cc(CCNC(=O)c2ccc(F)c(F)c2)nn1)NO` [Compound 57, 3,4-difluoro-N-[2-[1-[(1R)-3-(hydroxyamino)-1-(2-naphthylmethyl)-3-oxo-propyl]triazol-4-yl]ethyl]benzamide]: 1.7; `O=C(C[C@@H](Cc1ccc2ccccc2c1)n1cc(CC(=O)Nc2ccc(F)c(F)c2)nn1)NO` [Compound 74, 3-{4-[(3,4-Difluoro-phenylcarbamoyl)-methyl]-[1,2,3]triazol-1-yl}-N-hydroxy-4-naphthalen-2-yl-butyramide]: 1.6; `CN(Cc1cn([C@@H](CC(=O)NO)Cc2ccc3ccccc3c2)nn1)C(=O)c1ccc(F)c(F)c1` [Compound 87]: 1.7. On the same count and under the same terms, next, `O=C(C[C@@H](Cc1c[nH]c2ccccc12)n1cc([C@@H]2CCCN2C(=O)c2ccc(F)c(F)c2)nn1)NO` [Compound 88, (3R)-3-[4-[(2S)-1-(3,4-difluorobenzoyl)pyrrolidin-2-yl]triazol-1-yl]-4-(1H-indol-3-yl)butanehydroxamic acid]: 1.7.

Turning to `O=C(C[C@@H](Cc1c[nH]c2ccccc12)n1cc(C(Cc2ccc(OCc3ccccc3)cc2)NC(=O)c2ccc(F)c(F)c2)nn1)NO` (stereo partly drawn) [Compound 89, N-[2-(4-benzyloxyphenyl)-1-[1-[(1R)-3-(hydroxyamino)-1-(1H-indol-3-ylmethyl)-3-oxo-propyl]triazol-4-yl]ethyl]-3,4-difluoro-benzamide], the “Activity: ratio” value by setting is: under setting [1], 7.6; (OPM2, compound at 7.5 μM (Table 6)) 7.6. Consider `O=C(C[C@@H](Cc1c[nH]c2ccccc12)n1cc(C2COCCN2C(=O)c2ccc(F)c(F)c2)nn1)NO` (stereo partly drawn) [Compound 90, (3R)-3-[4-[4-(3,4-difluorobenzoyl)morpholin-3-yl]triazol-1-yl]-4-(1H-indol-3-yl)butanehydroxamic acid], for which the “Activity: ratio” value under setting [1] was determined as 1.4.

Regarding `CC(NC(=O)c1ccc(F)c(F)c1)c1cn([C@@H](CC(=O)NO)Cc2c[nH]c3ccccc23)nn1` (stereo partly drawn) [Compound 91, 3,4-difluoro-N-[1-[1-[(1R)-3-(hydroxyamino)-1-(1H-indol-3-ylmethyl)-3-oxo-propyl]triazol-4-yl]ethyl]benzamide], the “Activity: ratio” value under setting [1] turned out to be 1.4.

As to `O=C(C[C@@H](Cc1c[nH]c2ccccc12)n1cc([C@H](CO)NC(=O)c2ccc(F)c(F)c2)nn1)NO` [Compound 92, 3,4-difluoro-N-[(1R)-2-hydroxy-1-[1-[(1R)-3-(hydroxyamino)-1-(1H-indol-3-ylmethyl)-3-oxo-propyl]triazol-4-yl]ethyl]benzamide], under setting [1], the “Activity: ratio” value was 1.7. Turning to `O=C(C[C@@H](Cc1ccc2ccccc2c1)n1cc(C2COCCN2C(=O)c2ccc(F)c(F)c2)nn1)NO` (stereo partly drawn) [Compound 95, (3R)-3-[4-[4-(3,4-difluorobenzoyl)morpholin-3-yl]triazol-1-yl]-4-(2-naphthyl)butanehydroxamic acid], the “Activity: ratio” value under setting [1] was determined as 2.1. With `O=C(C[C@@H](Cc1ccc2ccccc2c1)n1cc([C@H](CO)NC(=O)c2ccc(F)c(F)c2)nn1)NO` [Compound 96, 3,4-difluoro-N-[(1R)-2-hydroxy-1-[1-[(1R)-3-(hydroxyamino)-1-(2-naphthylmethyl)-3-oxo-propyl]triazol-4-yl]ethyl]benzamide], the “Activity: ratio” value under setting [1] is given as 1.4.

For the compound `CC(C)CN(Cc1cn([C@@H](CC(=O)NO)Cc2c[nH]c3ccccc23)nn1)C(=O)c1ccc(F)c(F)c1` [Compound 98, 3,4-difluoro-N-[[1-[(1R)-3-(hydroxyamino)-1-(1H-indol-3-ylmethyl)-3-oxo-propyl]triazol-4-yl]methyl]-N-isobutyl-benzamide], under setting [1], the “Activity: ratio” value came out at 2.0. The same measure, in the same setting: to `CC(C)CCN(Cc1cn([C@@H](CC(=O)NO)Cc2c[nH]c3ccccc23)nn1)C(=O)c1ccc(F)c(F)c1` [Compound 99, 3,4-difluoro-N-[[1-[(1R)-3-(hydroxyamino)-1-(1H-indol-3-ylmethyl)-3-oxo-propyl]triazol-4-yl]methyl]-N-isopentyl-benzamide] belongs 2.5.
